Patent publication US20150307532A1, “THIENOPYRIMIDINE INHIBITORS OF […] AND/OR […] PYROPHOSPHATE SYNTHASE” (THE ROYAL INSTITUTION FOR THE ADVANCEMENT OF …, priority 2012, published 2015)
Where two headings read alike, the source gives them in different places.

Assays:
total Tau (T-Tau) = assay: Total Tau ELISA (Innotest Total Tau, hTau assay) in human immortalized neurons; type: cell-based; conditions: compound 100 nM, 24 hours, SH-SY5Y cell homogenate
Procedure: (§1) The commercially available INNOTEST® PHOSPHO-TAU(181P) solid-phase enzyme immunoassay was used. In this assay, the phosphorylated Tau protein or fragments are captured by a first monoclonal human specific antibody, HT7 (IgG1). Human immortalized neurons were treated with various compounds at […] and incubated with biotinylated AT270 (IgG1) monoclonal. This antigen-antibody complex is then detected by a peroxidase-labeled streptavidin. After addition of substrate working solution, samples develop a color. The color intensity is a measure for the amount of phosphorylated Tau protein in the sample. This assay has been standardized in numerous research laboratories (for examples see Vanderstichele, H. et al. Alzheimer's & Dementia 2012, 8, 65-73; Zimmermann, R. et al. Journal of Alzheimer's Diseases 2011, 25, 739-745; Blennow, K. et al. Molecular and Chemical Neuropathology 1995, 26, 231-245). Human neuroblastomas SH-SY5Y cell line were used and purchased at the ATCC under the label CRL2266. All compounds were tested in three fixed concentrations at 100 nM, 1 μM and 100 μM in duplicates. We used the 6 well culture plates to grown a significant density of neurons (330,000 cells/well). Cells were grown to 80% confluence in MEM-F12 media with 10% fetal bovine serum, the exposed for 24 hours to the different inhibitors. After one day, the supernatant was removed (and saved at −20° C.). The cell are washed repeatedly in PBS buffer and saved at −80° C. ELISA assays were performed on neuronal cell homogenates using a standardized assay developed by INNOGENETICS called Innotest Total Tau also refers to as the hTau assay and Innotest phospho-Tau (P181). Assays were performed as per manufacturer protocol. The concentration units are in pg of P-Tau per μg of total protein in the cell homogenate. […]; compounds which cause stress or damage to the neurons stimulate the production of P-Tau protein. Lactate dehydrogenase (LDH) activity was measured using a commercial kit; the maximum toxicity was based on % lactic acid dehydrogenases activity in the medium; the control was set at zero.

[1] = tested on: Human neuroblastomas SH-SY5Y cell line; assay: Lactate dehydrogenase (LDH) activity / toxicity in neurons; type: cell-based
Procedure: as §1

[2] = tested on: phosphorylated Tau protein; assay: Phospho-Tau bioassay (INNOTEST PHOSPHO-TAU(181P) ELISA) in human immortalized neurons; type: cell-based; conditions: compound 100 nM; for P-Tau: 24 hours, SH-SY5Y cell homogenate; for Ratio P/T: P-Tau/T-Tau
human recombinant FPPS = molecular target: T1, human recombinant FPPS (Homo sapiens, UniProt P14324)
T1 sequence (P14324 1-419): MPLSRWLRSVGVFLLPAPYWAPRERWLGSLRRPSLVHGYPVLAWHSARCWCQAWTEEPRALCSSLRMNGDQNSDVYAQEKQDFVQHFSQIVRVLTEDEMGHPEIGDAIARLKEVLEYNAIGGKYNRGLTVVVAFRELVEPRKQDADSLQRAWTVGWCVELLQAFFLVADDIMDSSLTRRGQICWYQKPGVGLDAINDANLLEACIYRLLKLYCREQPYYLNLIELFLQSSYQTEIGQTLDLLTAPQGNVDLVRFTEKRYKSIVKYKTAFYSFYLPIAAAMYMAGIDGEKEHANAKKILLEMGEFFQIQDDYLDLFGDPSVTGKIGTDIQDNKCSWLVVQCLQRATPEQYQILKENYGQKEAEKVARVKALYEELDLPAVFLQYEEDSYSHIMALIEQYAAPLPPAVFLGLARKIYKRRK
Procedure: In vitro Enzymatic Inhibition Assay for hFPPS: In vitro sensitized inhibition assay for hFPPS (M2):
For assays run with a 10 min pre-incubation period, the enzyme and inhibitor were incubated in the assay buffer in a volume of 80 μL at 37° C. for 10 min. After 10 min, the substrates were added to start the reaction and also bring the inhibitor and substrate to the desired final concentrations. After addition of all substrates, all assays were incubated at 37° C. for 8 min. Assays were terminated by the addition of 200 μL of HCl/methanol (1:4) and incubated for 10 min at 37° C. The assay mixture was then extracted with 700 μL of ligroin (in order to separate reaction products from unused substrate), dried through a plug of anhydrous MgSO4 and 300 μL of the ligroin phase was combined with 8 mL of scintillation cocktail. The radioactivity was then counted using a Beckman Coulter LS6500 liquid scintillation counter.

[3] = read-out: IC50 (μM) in hFPPS Method 2, ~1 nM hFPPS, 0.2 μM GPP and IPP

O=P(O)(O)C(O)(Cn1ccnc1)P(=O)(O)O [Zoledronic acid]
T-Tau (total Tau (T-Tau)): 34 pg/µg protein | toxicity to neurons [1]: highly toxic | LDH ([1]; human, 24 h, 100 nM): 60% | P-Tau [2]: 0.19 pg of P-Tau per μg of total protein

Cc1ccc(-c2cc3c(NCP(=O)(O)O)ncnc3s2)cc1 [Example 18-1, (((6-(p-tolyl)thieno[2,3-d]pyrimidin-4-yl)amino)methyl)phosphonic acid]
IC50 (human recombinant FPPS; [3]): 4.5 µM

O=P(O)(O)C(Nc1ncnc2sc(-c3ccc(C(F)(F)F)cc3)cc12)P(=O)(O)O [Example 6-1, (((6-(4-(trifluoromethyl)phenyl)thieno[2,3-d]pyrimidin-4-yl)amino)methylene)diphosphonic acid]
IC50 (human recombinant FPPS; [3]): 0.021 µM

O=C(O)Cn1c(C(=O)O)cc2ccc3ccccc3c21 [Inhibitor 1]
T-Tau (total Tau (T-Tau)): 65 pg/µg protein | LDH ([1]; human, 24 h, 100 nM): 3% | P-Tau [2]: 0.30 pg of P-Tau per μg of total protein

COc1ccc(-c2cc3c(NC(P(=O)(O)O)P(=O)(O)O)ncnc3s2)cc1 [Example 8-1, (((6-(4-methoxyphenyl)thieno[2,3-d]pyrimidin-4-yl)amino)methylene)diphosphonic acid]
IC50 (human recombinant FPPS; [3]): 0.015 µM

Cc1ccc(-c2cc3c(NC(c4ccccc4)P(=O)(O)O)ncnc3s2)cc1 (stereo not drawn) [Example 36-1, (phenyl((6-(p-tolyl)thieno[2,3-d]pyrimidin-4-yl)amino)methyl)phosphonic acid]
IC50 (human recombinant FPPS): 4.2 µM

O=P(O)(O)C(Nc1ncnc2sc(-c3ccc4ccccc4c3)cc12)P(=O)(O)O [Example 10-1]
IC50 (human recombinant FPPS; [3]): 0.063 µM

O=P(O)(O)C(Nc1ncnc2sc(-c3ccc(OC4CC4)cc3)cc12)P(=O)(O)O [Example 11-1, (((6-(4-cyclopropoxyphenyl)thieno[2,3-d]pyrimidin-4-yl)amino)methylene)diphosphonic acid]
T-Tau (total Tau (T-Tau)): 31 pg/µg protein | LDH ([1]; human, 24 h, 100 nM): 0% | P-Tau [2]: 0.30 pg of P-Tau per μg of total protein | Ratio P/T [2]: 0.007

Cc1ccc(-c2sc3ncnc(NCP(=O)(O)O)c3c2N)cc1Cl [Example 41-1]
IC50 (human recombinant FPPS): 10 µM

O=P(O)(O)CNc1ncnc2sc(-c3ccc(C4CC4)cc3)cc12 [Example 16-1, (((6-(4-cyclopropylphenyl)thieno[2,3-d]pyrimidin-4-yl)amino)methyl)phosphonic acid]
T-Tau (total Tau (T-Tau)): 47 pg/µg protein | LDH ([1]; human, 24 h, 100 nM): 7% | IC50 (human recombinant FPPS): 29 µM | P-Tau [2]: 0.35 pg of P-Tau per μg of total protein | Ratio P/T [2]: 0.007

Cc1ccc(-c2cc3c(NC(c4ccccc4)P(=O)(O)O)ncnc3s2)cc1Cl (stereo not drawn) [Example 37-1, (((6-(3-chloro-4-methylphenyl)thieno[2,3-d]pyrimidin-4-yl)amino)(phenyl)methyl)phosphonic acid]
IC50 (human recombinant FPPS): 1.3 µM

O=P(O)(O)C(Nc1ncnc2sc(-c3ccc(C4CC4(F)F)cc3)cc12)P(=O)(O)O (stereo not drawn) [Example 13-1, (((6-(4-(2,2-difluorocyclopropyl)phenyl)thieno[2,3-d]pyrimidin-4-yl)amino)methylene)diphosphonic acid]
IC50 (human recombinant FPPS; [3]): 0.011 µM

Cc1ccc(-c2cc3c(NC(P(=O)(O)O)P(=O)(O)O)ncnc3s2)cc1 [Example 5-1]
IC50 (human recombinant FPPS; [3]): 0.022 µM

O=P(O)(O)C(O)(Cc1cccnc1)P(=O)(O)O [Risedronic acid]
T-Tau (total Tau (T-Tau)): 38 pg/µg protein | Toxicity ([1]; compound 100 nM, based on LDH): high | LDH ([1]; compound 100 nM, % lactic acid dehydrogenases activity in the medium, control set at zero): 60% | toxicity to neurons ([1]; human immortalized neurons): highly toxic | P-Tau [2]: 0.17 pg of P-Tau per μg of total protein

O=P(O)(O)C(Nc1ncnc2sc(-c3ccc(C4CC4)cc3)cc12)P(=O)(O)O [Example 7-1, (((6-(4-cyclopropylphenyl)thieno[2,3-d]pyrimidin-4-yl)amino)methylene)diphosphonic acid]
IC50 (human recombinant FPPS): 0.036 µM

Cc1ccc(-c2sc3ncnc(NCP(=O)(O)O)c3c2N)cc1 [Example 21-1, (((5-amino-6-(p-tolyl)thieno[2,3-d]pyrimidin-4-yl)amino)methyl)phosphonic acid]
IC50 (human recombinant FPPS): 2.7 µM

Cc1ccc(-c2cc3c(N[C@H](Cc4ccccc4)C(=O)O)ncnc3s2)cc1 [Example 33-1]
IC50 (human recombinant FPPS): 40 µM
